Experimental data published in the NIST ThermoML archive (doi:10.1021/je2012633).
± gives the expanded uncertainty stated by the source.

Assay: xn = mol fraction of the nth substance listed
Conditions: 101 kPa, Liquid, Vibrating tube method

`CCOS(=O)(=O)[O-].CCn1cc[n+](C)c1` [1-ethyl-3-methylimidazolium ethyl sulfate] + CCO gave a mass density (288.15 K, x1 = 0.0494) of 864.9 ± 1 kg/m3, a mass density (288.15 K, x1 = 0.1233) of 943.6 ± 1 kg/m3 and a mass density (288.15 K, x1 = 0.2469) of 1035.3 ± 1 kg/m3. For the same compound, the mass density (288.15 K, x1 = 0.3485) was 1088.4 ± 1.1 kg/m3, the mass density (288.15 K, x1 = 0.4727) was 1136.8 ± 1.1 kg/m3 and the mass density (288.15 K, x1 = 0.5667) was 1164.9 ± 1.1 kg/m3. The mass density (288.15 K, x1 = 0.6483) was 1185.3 ± 1.2 kg/m3, the mass density (288.15 K, x1 = 0.7421) was 1205.3 ± 1.3 kg/m3 and the mass density (288.15 K, x1 = 0.827) was 1220.5 ± 1.4 kg/m3. For the same compound, the mass density (288.15 K, x1 = 0.9211) was 1234.8 ± 1.5 kg/m3, the mass density (288.15 K, x1 = 1) was 1245.3 ± 1.6 kg/m3 and the mass density (298.15 K, x1 = 0.0494) was 856.6 ± 1 kg/m3. For the same compound, the mass density (298.15 K, x1 = 0.1233) was 935.6 ± 1 kg/m3, the mass density (298.15 K, x1 = 0.2469) was 1027.6 ± 1 kg/m3 and the mass density (298.15 K, x1 = 0.3485) was 1080.9 ± 1.1 kg/m3. It also gave a mass density (298.15 K, x1 = 0.4727) of 1129.5 ± 1.1 kg/m3, a mass density (298.15 K, x1 = 0.5667) of 1157.7 ± 1.1 kg/m3 and a mass density (298.15 K, x1 = 0.6483) of 1178.2 ± 1.2 kg/m3. The mass density (298.15 K, x1 = 0.7421) was 1198.3 ± 1.3 kg/m3, the mass density (298.15 K, x1 = 0.827) was 1213.8 ± 1.4 kg/m3 and the mass density (298.15 K, x1 = 0.9211) was 1227.9 ± 1.5 kg/m3. It also gave a mass density (298.15 K, x1 = 1) of 1238.3 ± 1.6 kg/m3, a mass density (308.15 K, x1 = 0.0494) of 848.1 ± 1 kg/m3 and a mass density (308.15 K, x1 = 0.1233) of 927.6 ± 1 kg/m3. The mass density (308.15 K, x1 = 0.2469) was 1019.9 ± 1 kg/m3, the mass density (308.15 K, x1 = 0.3485) was 1073.4 ± 1 kg/m3 and the mass density (308.15 K, x1 = 0.4727) was 1122.2 ± 1.1 kg/m3. For the same compound, the mass density (308.15 K, x1 = 0.5667) was 1150.6 ± 1.1 kg/m3, the mass density (308.15 K, x1 = 0.6483) was 1171.2 ± 1.2 kg/m3 and the mass density (308.15 K, x1 = 0.7421) was 1191.3 ± 1.3 kg/m3. It also gave a mass density (308.15 K, x1 = 0.827) of 1206.8 ± 1.4 kg/m3, a mass density (308.15 K, x1 = 0.9211) of 1221.1 ± 1.5 kg/m3 and a mass density (308.15 K, x1 = 1) of 1231.6 ± 1.6 kg/m3. For the same compound, the mass density (318.15 K, x1 = 0.0494) was 839.7 ± 1 kg/m3, the mass density (318.15 K, x1 = 0.1233) was 919.5 ± 1 kg/m3 and the mass density (318.15 K, x1 = 0.2469) was 1012.3 ± 1 kg/m3. It also gave a mass density (318.15 K, x1 = 0.3485) of 1066 ± 1 kg/m3, a mass density (318.15 K, x1 = 0.4727) of 1115 ± 1.1 kg/m3 and a mass density (318.15 K, x1 = 0.5667) of 1143.5 ± 1.1 kg/m3. The mass density (318.15 K, x1 = 0.6483) was 1164.2 ± 1.2 kg/m3, the mass density (318.15 K, x1 = 0.7421) was 1184.4 ± 1.3 kg/m3 and the mass density (318.15 K, x1 = 0.827) was 1200 ± 1.3 kg/m3. It also gave a mass density (318.15 K, x1 = 0.9211) of 1214.3 ± 1.5 kg/m3 and a mass density (318.15 K, x1 = 1) of 1224.9 ± 1.6 kg/m3.
For `CCOS(=O)(=O)[O-].CCn1cc[n+](C)c1` [1-ethyl-3-methylimidazolium ethyl sulfate] + O, the mass density (288.15 K, x1 = 0.0319) was 1064.5 ± 1 kg/m3, the mass density (288.15 K, x1 = 0.07) was 1114.1 ± 1 kg/m3 and the mass density (288.15 K, x1 = 0.1022) was 1141.9 ± 1 kg/m3. The mass density (288.15 K, x1 = 0.1961) was 1186.1 ± 1 kg/m3, the mass density (288.15 K, x1 = 0.2988) was 1208.5 ± 1 kg/m3 and the mass density (288.15 K, x1 = 0.395) was 1220.4 ± 1 kg/m3. The mass density (288.15 K, x1 = 0.4939) was 1228.4 ± 1.1 kg/m3, the mass density (288.15 K, x1 = 0.5829) was 1233.3 ± 1.1 kg/m3 and the mass density (288.15 K, x1 = 0.6798) was 1237.1 ± 1.2 kg/m3. For the same compound, the mass density (288.15 K, x1 = 0.7975) was 1240.8 ± 1.3 kg/m3, the mass density (288.15 K, x1 = 0.8726) was 1242.6 ± 1.4 kg/m3 and the mass density (288.15 K, x1 = 1) was 1245.3 ± 1.6 kg/m3. It also gave a mass density (298.15 K, x1 = 0.0319) of 1059.9 ± 1 kg/m3, a mass density (298.15 K, x1 = 0.07) of 1108 ± 1 kg/m3 and a mass density (298.15 K, x1 = 0.1022) of 1135.3 ± 1 kg/m3. The mass density (298.15 K, x1 = 0.1961) was 1178.9 ± 1 kg/m3, the mass density (298.15 K, x1 = 0.2988) was 1201.4 ± 1 kg/m3 and the mass density (298.15 K, x1 = 0.395) was 1213.4 ± 1 kg/m3. It also gave a mass density (298.15 K, x1 = 0.4939) of 1221.4 ± 1.1 kg/m3, a mass density (298.15 K, x1 = 0.5829) of 1226.4 ± 1.1 kg/m3 and a mass density (298.15 K, x1 = 0.6798) of 1230.2 ± 1.2 kg/m3. For the same compound, the mass density (298.15 K, x1 = 0.7975) was 1233.9 ± 1.3 kg/m3, the mass density (298.15 K, x1 = 0.8726) was 1235.8 ± 1.4 kg/m3 and the mass density (298.15 K, x1 = 1) was 1238.3 ± 1.6 kg/m3. The mass density (308.15 K, x1 = 0.0319) was 1054.4 ± 1 kg/m3, the mass density (308.15 K, x1 = 0.07) was 1101.8 ± 1 kg/m3 and the mass density (308.15 K, x1 = 0.1022) was 1128.5 ± 1 kg/m3. For the same compound, the mass density (308.15 K, x1 = 0.1961) was 1171.8 ± 1 kg/m3, the mass density (308.15 K, x1 = 0.2988) was 1194.3 ± 1 kg/m3 and the mass density (308.15 K, x1 = 0.395) was 1206.3 ± 1 kg/m3. For the same compound, the mass density (308.15 K, x1 = 0.4939) was 1214.4 ± 1.1 kg/m3, the mass density (308.15 K, x1 = 0.5829) was 1219.4 ± 1.1 kg/m3 and the mass density (308.15 K, x1 = 0.6798) was 1223.4 ± 1.2 kg/m3. It also gave a mass density (308.15 K, x1 = 0.7975) of 1227.1 ± 1.3 kg/m3, a mass density (308.15 K, x1 = 0.8726) of 1229 ± 1.4 kg/m3 and a mass density (308.15 K, x1 = 1) of 1231.6 ± 1.6 kg/m3. For the same compound, the mass density (318.15 K, x1 = 0.0319) was 1048.4 ± 1 kg/m3, the mass density (318.15 K, x1 = 0.07) was 1095.1 ± 1 kg/m3 and the mass density (318.15 K, x1 = 0.1022) was 1121.5 ± 1 kg/m3. For the same compound, the mass density (318.15 K, x1 = 0.1961) was 1164.6 ± 1 kg/m3, the mass density (318.15 K, x1 = 0.2988) was 1187.2 ± 1 kg/m3 and the mass density (318.15 K, x1 = 0.395) was 1199.3 ± 1 kg/m3. For the same compound, the mass density (318.15 K, x1 = 0.4939) was 1207.4 ± 1.1 kg/m3, the mass density (318.15 K, x1 = 0.5829) was 1212.5 ± 1.1 kg/m3 and the mass density (318.15 K, x1 = 0.6798) was 1216.6 ± 1.2 kg/m3. For the same compound, the mass density (318.15 K, x1 = 0.7975) was 1220.3 ± 1.3 kg/m3, the mass density (318.15 K, x1 = 0.8726) was 1222.3 ± 1.4 kg/m3 and the mass density (318.15 K, x1 = 1) was 1224.9 ± 1.6 kg/m3.
With `CCCCCCCCOS(=O)(=O)[O-].CCn1cc[n+](C)c1` [1-ethyl-3-methylimidazolium octyl sulfate] + CCO the mass density (288.15 K, x1 = 0.098) was 906.4 ± 1 kg/m3, the mass density (288.15 K, x1 = 0.1901) was 964.1 ± 1 kg/m3 and the mass density (288.15 K, x1 = 0.2985) was 1006.3 ± 1 kg/m3. It also gave a mass density (288.15 K, x1 = 0.3955) of 1031.6 ± 1 kg/m3, a mass density (288.15 K, x1 = 0.4964) of 1050.9 ± 1 kg/m3 and a mass density (288.15 K, x1 = 0.5975) of 1065.6 ± 1 kg/m3. The mass density (288.15 K, x1 = 0.6844) was 1075.6 ± 1 kg/m3, the mass density (288.15 K, x1 = 0.792) was 1085.7 ± 1 kg/m3 and the mass density (288.15 K, x1 = 0.9047) was 1094.4 ± 1 kg/m3. For the same compound, the mass density (288.15 K, x1 = 1) was 1100.7 ± 1 kg/m3, the mass density (298.15 K, x1 = 0.098) was 898.5 ± 1 kg/m3 and the mass density (298.15 K, x1 = 0.1901) was 956.5 ± 1 kg/m3. The mass density (298.15 K, x1 = 0.2985) was 998.9 ± 1 kg/m3, the mass density (298.15 K, x1 = 0.3955) was 1024.4 ± 1 kg/m3 and the mass density (298.15 K, x1 = 0.4964) was 1043.9 ± 1 kg/m3. The mass density (298.15 K, x1 = 0.5975) was 1058.7 ± 1 kg/m3, the mass density (298.15 K, x1 = 0.6844) was 1068.8 ± 1 kg/m3 and the mass density (298.15 K, x1 = 0.792) was 1078.9 ± 1 kg/m3. The mass density (298.15 K, x1 = 0.9047) was 1087.5 ± 1 kg/m3, the mass density (298.15 K, x1 = 1) was 1093.8 ± 1 kg/m3 and the mass density (308.15 K, x1 = 0.098) was 890.7 ± 1 kg/m3. The mass density (308.15 K, x1 = 0.1901) was 949 ± 1 kg/m3, the mass density (308.15 K, x1 = 0.2985) was 991.8 ± 1 kg/m3 and the mass density (308.15 K, x1 = 0.3955) was 1017.4 ± 1 kg/m3. It also gave a mass density (308.15 K, x1 = 0.4964) of 1037 ± 1 kg/m3, a mass density (308.15 K, x1 = 0.5975) of 1051.9 ± 1 kg/m3 and a mass density (308.15 K, x1 = 0.6844) of 1062.1 ± 1 kg/m3. For the same compound, the mass density (308.15 K, x1 = 0.792) was 1072.3 ± 1 kg/m3, the mass density (308.15 K, x1 = 0.9047) was 1081 ± 1 kg/m3 and the mass density (308.15 K, x1 = 1) was 1087 ± 1 kg/m3. For the same compound, the mass density (318.15 K, x1 = 0.098) was 882.8 ± 1 kg/m3, the mass density (318.15 K, x1 = 0.1901) was 941.4 ± 1 kg/m3 and the mass density (318.15 K, x1 = 0.2985) was 984.4 ± 1 kg/m3. The mass density (318.15 K, x1 = 0.3955) was 1010.3 ± 1 kg/m3, the mass density (318.15 K, x1 = 0.4964) was 1030.1 ± 1 kg/m3 and the mass density (318.15 K, x1 = 0.5975) was 1045.2 ± 1 kg/m3. It also gave a mass density (318.15 K, x1 = 0.6844) of 1055.4 ± 1 kg/m3, a mass density (318.15 K, x1 = 0.792) of 1065.8 ± 1 kg/m3 and a mass density (318.15 K, x1 = 0.9047) of 1074.4 ± 1 kg/m3. It also gave a mass density (318.15 K, x1 = 1) of 1080.5 ± 1 kg/m3.
